Reference: patent US20250059205A1, “Heterocyclic Compounds and Methods of Use” (AMGEN INC., priority 2021, published 2025)

Assays:
[1] = system: Phosphorylation of ERK1/2 in A-427 cells; experiment: Phospho-ERK1/2 MSD Assay (A-427 cells); type: cell-based; conditions: Homo sapiens, A-427, 2 h, 2 h treatment, read-out: p-ERK (A427 cells) IC50
Experimental: (§1) A-427 (ATCC® HTB-53™) cells were cultured in RPMI 1640 Medium (ThermoFisher Scientific 11875093) containing 10% fetal bovine serum (ThermoFisher Scientific 16000044) and 1× penicillin-streptomycin-glutamine (ThermoFisher Scientific 10378016). Sixteen hours prior to compound treatment, A-427 cells were seeded in 96-well cell culture plates at a density of 25,000 cells/well and incubated at 37° C., 5% CO2. A compound dose-response titration was diluted in growth media, added to appropriate wells of a cell culture plate, and then incubated at 37° C., 5% CO2 for 2 h. Following compound treatment, cells were washed with ice-cold Dulbecco's phosphate-buffered saline, no Ca^2+ or Mg^2+ (ThermoFisher Scientific 14190144), and then lysed in RIPA buffer (50 mM Tris-HCl pH 7.5, 1% Igepal, 0.5% sodium deoxycholate, 150 mM NaCl, and 0.5% sodium dodecyl sulfate) containing protease inhibitors (Roche 4693132001) and phosphatase inhibitors (Roche 4906837001). Phosphorylation of ERK1/2 in compound-treated lysates was assayed using Phospho-ERK1/2 Whole Cell Lysate kits (Meso Scale Discovery K151DWD) according to the manufacturer's protocol. Assay plates were read on a Meso Scale Discovery Sector Imager 6000, and data were analyzed using a 4-parameter logistic model to calculate IC50 values.

[2] = biological target: GDP-bound KRAS protein (aa 1-169), containing both G12D and C118A amino acid substitutions (Homo sapiens, UniProt P01116, C118A/G12D); experiment: KRAS G12D Coupled Nucleotide Exchange Assay; type: biochemical; conditions: 2 h compound pre-incubation
Experimental: Following compound pre-incubation, purified SOS protein (aa 564-1049) and GTP (Roche 10106399001) were added to the assay wells and incubated for an additional 30 min. […] The assay plates were then read on a PerkinElmer EnVision Multilabel Reader, using AlphaScreen® technology, and data were analyzed using a 4-parameter logistic model to calculate IC50 values.

[3] = biological target: His-tagged KRAS G12D protein (Homo sapiens, UniProt P01116, G12D); experiment: KRAS G12D TR-FRET Assay; type: binding
Experimental: Compounds of interest were prepared in a dose-response titration in DMSO, and 80 nL were added via Labcyte Echo to each well of a 384-well plate (Perkin Elmer 6008280). […] The plate was incubated for 30 minutes at room temperature. Biotinylated KRPep-2d substrate (Amgen) was diluted to 20 nM in Assay Buffer and 2 μL was added to all wells and incubated for 1 h at room temperature. Detection Reagent (0.4 nM LANCE Eu-W1024 Anti-6xHis (Perkin Elmer AD0401), 5 nM streptavidin-d2 (Cisbio 610SADLA)) was prepared in Assay Buffer, then 4 μL was added to the plate and incubated for 1 h at room temperature. Plates were read using PerkinElmer EnVision (ex: 320 nm, em1: 665 nm, em2: 615 nm) and em1/em2 data was used to generate curve fits using a 4-parameter logistic model to calculate IC50 values.

[4] = system: Phosphorylation of ERK1/2 in AsPC-1 cells; experiment: Phospho-ERK1/2 MSD Assay (AsPC-1 cells); type: cell-based; conditions: Homo sapiens, ASPC1, 2 h, 2 hours treatment, read-out: p-ERK (AsPC-1 cells) IC50
Experimental: as §1, with “AsPC-1” for “A-427”, “CRL-1682™)” for “HTB-53™)”, “hours.” for “h.”

Chain of GDP-bound KRAS protein (aa 1-169), containing both G12D and C118A amino acid substitutions (P01116 1-169 isoform P01116-2 G12D/C118A): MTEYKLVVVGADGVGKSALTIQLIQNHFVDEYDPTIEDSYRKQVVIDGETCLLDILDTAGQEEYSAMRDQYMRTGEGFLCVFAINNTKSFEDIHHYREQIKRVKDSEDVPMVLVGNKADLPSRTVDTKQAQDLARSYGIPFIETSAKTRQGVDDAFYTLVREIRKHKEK
Chain of His-tagged KRAS G12D protein (P01116 1-188 isoform P01116-2 G12D): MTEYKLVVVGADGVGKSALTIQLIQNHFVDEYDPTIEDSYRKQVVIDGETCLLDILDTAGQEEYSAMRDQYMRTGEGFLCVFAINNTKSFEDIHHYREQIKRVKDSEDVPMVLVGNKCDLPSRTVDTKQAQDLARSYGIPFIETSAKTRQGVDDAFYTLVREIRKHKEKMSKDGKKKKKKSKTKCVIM

Cc1c(-c2cc(O)cc3ccccc23)ccc2c(N3C[C@H]4C[C@@H](C3)N4)nc(OC[C@@]34CCCN3C[C@H](F)C4)nc12 [Example 5, 4-(4-((1R,5S)-3,6-diazabicyclo[3.1. 1]heptan-3-yl)-2-(((2R,7aS)-2-fluorotetrahydro-1H-pyrrolizin-7a(5H)-yl)methoxy)-8-methylquinazolin-7-yl)naphthalen-2-ol]
IC50 [1]: 2150 nM | Avg 2 h Coupled Exchange IC50 [2]: 19 nM | IC50 [3]: 43 nM | IC50 [4]: 2970 nM

CCc1c(F)ccc2cc(O)cc(-c3c(F)cc4c(N5C[C@H]6CC[C@@H](C5)N6)nc(OCC5(C)CCC(=O)O5)nc4c3F)c12 (stereo partly drawn) [Example 212, 5-(((4-((1R,5S)-3,8-Diazabicyclo[3.2.1]octan-3-yl)-7-(8-ethyl-7-fluoro-3-hydroxynaphthalen-1-yl)-6,8-difluoroquinazolin-2-yl)oxy)methyl)-5-methyldihydrofuran-2(3H)-one]
IC50 [1]: 514 nM | Avg 2 h Coupled Exchange IC50 [2]: 3 nM | IC50 [3]: 2 nM | IC50 [4]: 784 nM

Oc1cc(-c2c(Cl)cc3c(N4C[C@H]5CC[C@@H](C4)N5)nc(OC[C@@]45CCCN4C[C@H](F)C5)nc3c2F)c2c(Cl)cccc2c1 [Example 86, 4-(4-((1R,5S)-3,8-diazabicyclo[3.2. 1]octan-3-yl)-6-chloro-8-fluoro-2-(((2R,7aS)-2-fluorotetrahydro-1H-pyrrolizin-7a(5H)-yl)methoxy)quinazolin-7-yl)-5-chloronaphthalen-2-ol]
IC50 [1]: 54 nM | Avg 2 h Coupled Exchange IC50 [2]: 2 nM | IC50 [3]: 4 nM | IC50 [4]: 149 nM

Cc1ccc2[nH]nc(C)c2c1-c1ccc2c(N3C[C@H]4CC[C@@H](C3)N4)nc(OC[C@@]34CCCN3C[C@H](F)C4)nc2c1F [Example 209, 4-((1R,5S)-3,8-diazabicyclo[3.2.1]octan-3-yl)-7-(3,5-dimethyl-1H-indazol-4-yl)-8-fluoro-2-(((2R,7aS)-2-fluorotetrahydro-1H-pyrrolizin-7a(5H)-yl)methoxy) quinazoline]
IC50 [1]: 1620 nM | Avg 2 h Coupled Exchange IC50 [2]: 24 nM | IC50 [3]: 68 nM | IC50 [4]: 2570 nM

CCc1c(F)ccc2cc(O)cc(-c3c(F)cc4c(N5C[C@@H]6CC[C@H]5CN6)nc(OC[C@@]56CCCN5C[C@H](F)C6)nc4c3F)c12 [Example 93, 4-(4-((1S,4S)-2,5-diazabicyclo[2.2. 2]octan-2-yl)-6,8-difluoro-2-(((2R,7aS)-2-fluorotetrahydro-1H-pyrrolizin-7a(5H)-yl)methoxy)quinazolin-7-yl)-5-ethyl-6-fluoronaphthalen-2-ol]
IC50 [1]: 6 nM | Avg 2 h Coupled Exchange IC50 [2]: 6 nM | IC50 [3]: 5 nM | IC50 [4]: 9 nM

Nc1cc(F)c(F)c(-c2c(F)cc3c(N4CC5CCC(C4)N5)nc(OC[C@@]45CCCN4C[C@H](F)C5)nc3c2F)c1 [Example 118]
IC50 [1]: 6780 nM | Avg 2 h Coupled Exchange IC50 [2]: 39 nM | IC50 [3]: 140 nM | IC50 [4]: 4950 nM

Cc1cc(N)nc(-c2ccc3c(N4C[C@H]5CC[C@@H](C4)N5)nc(OC[C@@]45CCCN4C[C@H](F)C5)nc3c2F)c1C(F)(F)F [Example 229, 6-(4-((1R,5S)-3,8-Diazabicyclo[3.2.1]octan-3-yl)-8-fluoro-2-(((2R,7aS)-2-fluorotetrahydro-1H-pyrrolizin-7a(5H)-yl)methoxy)quinazolin-7-yl)-4-methyl-5-(trifluoromethyl)pyridin-2-amine]
IC50 [1]: 222 nM | Avg 2 h Coupled Exchange IC50 [2]: 4 nM | IC50 [3]: 7 nM | IC50 [4]: 486 nM

CCc1c(F)ccc2cc(O)cc(-c3ccc4c(N5C[C@H]6CC[C@@H](C5)N6)nc(OCC5(O)CCC5)nc4c3F)c12 [Example 135, 4-(4-((1R,5S)-3,8-diazabicyclo[3.2.1]octan-3-yl)-8-fluoro-2-((1-hydroxycyclobutyl)methoxy)quinazolin-7-yl)-5-ethyl-6-fluoronaphthalen-2-ol]
IC50 [1]: 2120 nM | Avg 2 h Coupled Exchange IC50 [2]: 9 nM | IC50 [3]: 10 nM | IC50 [4]: 2270 nM
